Results reported in patent US20230051204A1, “ANTIMICROBIAL COMPOSITION CONTAINING WASP EXTRACT AS ACTIVE INGREDIENT” (priority 2021, published 2023).
Where “and” joins values, the source holds several entries; their conditions need not be identical. Equal entries are not always repeated.

What was measured:
human erythrocytes = test: Human erythrocyte hemolytic activity; conditions: 37° C., 30 minutes
Experimental: In order to evaluate the acute toxicities of the Vespa velutina nigrithorax, V. simillima simillima Smith and V. mandarinia Smith extracts and the fractions thereof, the human erythrocyte hemolytic activities thereof were evaluated. At this time, the hemolytic activity was evaluated according to a previous report (Son Ho-Yong et al., 2014, Korean J. Microbiol. Biotechnol. 42: 285-292). Briefly, 100 μl of human erythrocytes were washed three times with PBS and added to a 96-well microplate, and 100 μl of a sample solution at various concentrations was added thereto and then allowed to react at 37° C. for 30 minutes. Thereafter, the reaction solution was centrifuged at 1,500 rpm for 10 minutes, and 100 μl of the supernatant was transferred to a fresh microtiter plate, and then the degree of hemoglobin leakage following hemolysis was measured at 414 nm. DMSO (2%) was used as a solvent control for the sample, and Triton X-100 (1 mg/ml) was used as an experimental control for hemolysis of erythrocytes. Hemolytic activity was calculated using the following equation.
(%) Hemolysis=[(Abs. S−Abs. C)/(Abs. T−Abs. C)]×100
Abs. S: absorbance of sample-added group
Abs. C: absorbance of DMSO-added group
Abs. T: absorbance of Triton X-100-added group

[1] = test system: Bacillus subtilis KCTC 1924; test: Disc-paper clear zone test, antibacterial; format: cell-based; set-up: key: —: no clear zone; conditions: antibiotic 1 μg/disc; BS
Text: (§1) For evaluation of the antibacterial activities, the following strains were used: Escherichia coli KCTC 1682, Proteus vulgaris KCTC 2433, Pseudomonas aeruginosa KACC 10186, and Salmonella typhimurium KCTC 1926, which are Gram-negative bacteria, and Staphylococcus aureus KCTC 1916, Staphylococcus epidermidis ATCC 12228, and Listeria monocytogenes KACC 10550, Bacillus subtilis KCTC 1924, which are Gram-positive bacteria. Meanwhile, for evaluation of the antifungal activities, Saccharomyces cerevisiae IF0 0233 and Candida albicans KCTC 1940 that causes Candidiasis fungal infection were used.
(§2) First, for evaluation of the antibacterial activities, each bacterial strain was inoculated into nutrient broth (Difco Co., USA) and cultured at 37° C. for 24 hours. Then, each strain was adjusted to an O.D.600 of 0.1, and then 100 μl of each strain was plated on a Petri dish (90 mm, Green Cross, Korea) containing nutrient agar (Difco Co., USA) medium, and 5 μl of each extract sample added to sterile disc-paper (6.5 mm diameter, Whatsman No. 2) was added to each strain which was then incubated at 37° C. for 24 hours. For evaluation of the antifungal activities, each fungal strain was cultured using Sabouraud dextrose (Difco Co. USA) at 30° C. for 24 hours in the same manner as described above, and the antifungal activity of each extract sample was evaluated by measuring the size of the clear zone. As a control, each of the antibacterial agent ampicillin and the antifungal agent miconazole (Sigma Co., USA) was at a concentration of 1 μg/disc. The size of the clear zone was measured by measuring, in units of mm, the diameter of the part where growth was invisible with the naked eye, and was expressed as a representative result after three or more evaluations.
(§3) The antimicrobial activities of the fraction of each of the Vespa velutina nigrithorax, V. simillima simillima Smith and V. mandarinia Smith extracts, prepared in Example 4, were measured according to the same method as the antibacterial and antifungal activity evaluation described in Example 3.

[2] = test system: Escherichia coli KCTC 1682; test: Disc-paper clear zone test, antibacterial; format: cell-based; set-up: key: —: no clear zone; conditions: antibiotic 1 μg/disc; EC
Text: as §1, §2, §3

[3] = test system: Listeria monocytogenes KACC 10550; test: Disc-paper clear zone test, antibacterial; format: cell-based; set-up: key: —: no clear zone; conditions: antibiotic 1 μg/disc; LM
Text: as §1, §2, §3

[4] = test system: Proteus vulgaris KCTC 2433; test: Disc-paper clear zone test, antibacterial; format: cell-based; set-up: key: —: no clear zone; conditions: antibiotic 1 μg/disc; PV
Text: as §1, §2, §3

[5] = test system: Pseudomonas aeruginosa KACC 10186; test: Disc-paper clear zone test, antibacterial; format: cell-based; set-up: key: —: no clear zone; conditions: antibiotic 1 μg/disc; PA
Text: as §1, §2, §3

[6] = test system: Salmonella typhimurium KCTC 1926; test: Disc-paper clear zone test, antibacterial; format: cell-based; set-up: key: —: no clear zone; conditions: antibiotic 1 μg/disc; ST
Text: as §1, §2, §3

[7] = test system: Staphylococcus aureus KCTC 1916; test: Disc-paper clear zone test, antibacterial; format: cell-based; set-up: key: —: no clear zone; conditions: antibiotic 1 μg/disc; SA
Text: as §1, §2, §3

[8] = test system: Staphylococcus epidermidis ATCC 12228; test: Disc-paper clear zone test, antibacterial; format: cell-based; set-up: key: —: no clear zone; conditions: antibiotic 1 μg/disc; SE
Text: as §1, §2, §3

[9] = test system: Candida albicans KCTC 1940; test: Disc-paper clear zone test, antifungal; format: cell-based; set-up: key: —: no clear zone; conditions: antibiotic 1 μg/disc; CA
Text: as §1, §2, §3

[10] = test system: Saccharomyces cerevisiae IF0 0233; test: Disc-paper clear zone test, antifungal; format: cell-based; set-up: key: —: no clear zone; conditions: antibiotic 1 μg/disc; SC
Text: as §1, §2, §3

[11] = test system: gram-positive bacteria, gram-negative bacteria and fungi; test: Disc-paper clear zone test, summary over the whole panel; format: cell-based; conditions: 1 μg/disc; span over the gram-positive and gram-negative bacteria; read-out: Clear zone size
Text: as §1
First, for evaluation of the antibacterial activities, each bacterial strain was inoculated into nutrient broth (Difco Co., USA) and cultured at 37° C. for 24 hours. […] For evaluation of the antifungal activities, each fungal strain was cultured using Sabouraud dextrose (Difco Co. USA) at 30° C. for 24 hours in the same manner as described above, and the antifungal activity of each extract sample was evaluated by measuring the size of the clear zone. […] The size of the clear zone was measured by measuring, in units of mm, the diameter of the part where growth was invisible with the naked eye, and was expressed as a representative result after three or more evaluations.

| Compound | Human erythrocyte hemolytic activity (human erythrocytes; 0.0032 mg/ml) [%] | Human erythrocyte hemolytic activity (human erythrocytes; 0.0063 mg/ml) [%] | Human erythrocyte hemolytic activity (human erythrocytes; 0.0125 mg/ml) [%] | Human erythrocyte hemolytic activity (human erythrocytes; 0.05 mg/ml) [%] | Human erythrocyte hemolytic activity (human erythrocytes; 0.1 mg/ml) [%] | Clear zone [1] | Clear zone [2] | Clear zone [3] | Clear zone [4] | Clear zone [5] | Clear zone [6] | Clear zone [7] | Clear zone [8] | Clear zone [9] | Clear zone [10] | zone of inhibition at 1 µg/disc [11] [mm] | Human erythrocyte hemolytic activity (human erythrocytes; 1.0 mg/ml) |
| --- | --- | --- | --- | --- | --- | --- | --- | --- | --- | --- | --- | --- | --- | --- | --- | --- | --- |
| C[C@@H]1[C@H](O)[C@@H](C)/C=C/C=C/C=C/C=C/C=C/C=C/C=C/[C@H](O[C@@H]2O[C@H](C)[C@@H](O)[C@H](N)[C@@H]2O)C[C@@H]2O[C@](O)(C[C@@H](O)C[C@@H](O)[C@H](O)CC[C@@H](O)C[C@@H](O)CC(=O)O[C@H]1C)C[C@H](O)[C@H]2C(=O)O [Amphotericin B] | 6.5 ± 0.9 | 21.6 ± 3.7 | 48.2 ± 5.9 | 72.4 ± 5.2 | 95.8 ± 0.3 |  |  |  |  |  |  |  |  |  |  |  |  |
| CC1(C)S[C@@H]2[C@H](NC(=O)[C@H](N)c3ccccc3)C(=O)N2[C@H]1C(=O)O [Ampicillin, ampicillin] |  |  |  |  |  | 23.5 mm | 9.0 mm | 26.0 mm | 30.0 mm | 16.0 mm | 20.0 mm | 26.0 mm | 20.0 mm | — | — | 9 to 30 |  |
| Clc1ccc(COC(Cn2ccnc2)c2ccc(Cl)cc2Cl)c(Cl)c1 (stereo not drawn) [Miconazole, miconazole] |  |  |  |  |  | — | — | — | — | — | — | — | — | 8.5 mm | 8.5 mm |  |  |
| Triton X-100 |  |  |  |  |  |  |  |  |  |  |  |  |  |  |  |  | 100% and 100.0 ± 0.1% |
